Measurements taken from ChEMBL document CHEMBL3352748, “Lead optimization of imidazopyrazines: a new class of antimalarial with activity on Plasmodium liver stages” (ACS Med Chem Lett, 2014).
Values after ≈ are worked out from the molar mass of the structure shown.

Legend:
[1] = system: Plasmodium falciparum; assay: Antiplasmodial activity against schizont blood stage Plasmodium falciparum; assay type: functional, organism-based
[2] = system: Plasmodium yoelii; assay: Antiplasmodial activity against blood stage schizont Plasmodium yoelii; assay type: functional, organism-based
[3] = system: Plasmodium cynomolgi; assay: Antiplasmodial activity against hypnozoite liver stage Plasmodium cynomolgi; assay type: functional, organism-based
[4] = system: Plasmodium cynomolgi; assay: Antiplasmodial activity against schizont liver stage Plasmodium cynomolgi; assay type: functional, organism-based
[5] = Solubility of the compound at pH 6.8 by HT-equilibrium solubility assay; assay type: physicochemical; conditions: buffer
[6] = Hepatic extraction ratio in mouse liver microsomes by LC/MS analysis; assay type: ADME; conditions: read-out: ERH
[7] = Half life in mouse liver microsomes by LC/MS analysis; assay type: ADME
[8] = Oral bioavailability in mouse at 20 mg/kg; assay type: ADME, organism-based; conditions: in vivo
[9] = Clearance in mouse at 5 mg/kg, iv; assay type: ADME, organism-based; design: dose 5 mg/kg, route intravenous; conditions: in vivo
[10] = Cmax in mouse at 20 mg/kg, po; assay type: ADME, organism-based; design: dose 20 mg/kg, route oral; conditions: in vivo
[11] = Half life in mouse at 5 mg/kg, iv; assay type: ADME, organism-based; design: dose 5 mg/kg, route intravenous; conditions: in vivo
[12] = Tmax in mouse at 20 mg/kg, po; assay type: ADME, organism-based; design: dose 20 mg/kg, route oral; conditions: in vivo
[13] = AUC in mouse at 20 mg/kg, po; assay type: ADME, organism-based; design: dose 20 mg/kg, route oral; conditions: plasma
[14] = Half life in mouse at 20 mg/kg, po; assay type: ADME, organism-based; design: dose 20 mg/kg, route oral; conditions: in vivo
[15] = Volume of distribution at steady state in mouse at 5 mg/kg, iv; assay type: ADME, organism-based; design: dose 5 mg/kg, route intravenous; conditions: in vivo, read-out: Vdss
[16] = system: Plasmodium berghei; assay: Antimalarial activity against Plasmodium berghei infected in mouse assessed as animal protection at 30 mg/kg, po by causal prophylactic activity assay relative to untreated control; assay type: functional

| Structure (SMILES) | IC50 [1] | IC50 [2] | IC50 [3] | IC50 [4] | solubility thermodynamic [5] | hepatic extraction ratio [6] | half-life [7] | bioavailability [8] | clearance [9] | Cmax [10] | half-life [11] | Tmax [12] | AUC [13] | half-life [14] | Vd [15] | Activity [16] |
| --- | --- | --- | --- | --- | --- | --- | --- | --- | --- | --- | --- | --- | --- | --- | --- | --- |
| CN(C(=O)c1ccc2ncc(-c3ccc(C#N)cc3)n2c1)c1ccccc1 | 0.6 µM | > 10 µM | > 10 µM | – | – | – | – | – | – | – | – | – | – | – | – | – |
| CN(C(=O)c1ccc2ncc(-c3ccc(C(F)(F)F)cc3)n2c1)c1ccc(C#N)cc1 | 0.011 µM | 5.4 µM | > 10 µM | – | – | – | – | – | – | – | – | – | – | – | – | – |
| CN(C(=O)c1cn2c(-c3ccc(C(F)(F)F)cc3)cnc2cn1)c1ccc(C#N)cc1 | 0.063 µM | 0.16 µM | 0.81 µM | 0.12 µM | 9 µM (≈ 3.79 µg/mL) | 0.4 | 1.37 h | – | – | – | – | – | – | – | – | – |
| CN(C(=O)c1cn2c(-c3ccc(C(F)(F)F)cc3)cnc2cn1)c1ccc(Cl)nc1 | 0.275 µM | 0.2 µM | – | – | – | – | – | – | – | – | – | – | – | – | – | – |
| CN(C(=O)c1cn2c(-c3ccc(C(F)(F)F)cc3)cnc2cn1)c1ccc(C#N)nc1 | 1.63 µM | 3.63 µM | – | – | – | – | – | – | – | – | – | – | – | – | – | – |
| Cc1ccc(N(C)C(=O)c2cn3c(-c4ccc(C(F)(F)F)cc4)cnc3cn2)nn1 | > 10 µM | > 10 µM | – | – | – | – | – | – | – | – | – | – | – | – | – | – |
| CN(C(=O)c1cn2c(-c3ccc(C(F)(F)F)cc3)cnc2cn1)c1nc2ccccc2s1 | 9.58 µM | > 10 µM | – | – | – | – | – | – | – | – | – | – | – | – | – | – |
| CN(Cc1ccc(F)cc1)C(=O)c1cn2c(-c3ccc(C(F)(F)F)cc3)cnc2cn1 | > 10 µM | > 10 µM | – | – | – | – | – | – | – | – | – | – | – | – | – | – |
| CN1CCC(N(C)C(=O)c2cn3c(-c4ccc(C(F)(F)F)cc4)cnc3cn2)CC1 | > 10 µM | > 10 µM | – | – | – | – | – | – | – | – | – | – | – | – | – | – |
| CN(C(=O)c1cn2c(-c3ccc(-c4ccn[nH]4)cc3)cnc2cn1)c1ccc(C#N)cc1 | 0.032 µM | 0.046 µM | 0.3 µM | 0.3 µM | – | – | – | – | – | – | – | – | – | – | – | – |
| CN(C(=O)c1cn2c(-c3ccc(-c4nnc(N)s4)cc3)cnc2cn1)c1ccc(C#N)cc1 | 0.022 µM | 0.019 µM | 0.06 µM | 0.04 µM | < 5 µM | – | – | 0.24% | 16.2 mL/min/kg | 0.02 µM | 2.12 h | 1.7 h | 0.12 µM·h | 3.39 h | 0.99 L/kg | – |
| CN(C(=O)c1cn2c(-c3ccc(C(N)=O)cc3)cnc2cn1)c1ccc(F)cc1 | 0.056 µM | 0.062 µM | 0.26 µM | 0.19 µM | 170 µM (≈ 66.2 µg/mL) | 0.52 | 0.95 h | 51.6% | 39.7 mL/min/kg | 8.3 µM | 0.62 h | 0.5 h | 11.1 µM·h | 1.35 h | 0.9 L/kg | 80% |
| CNC(=O)c1ccc(-c2cnc3cnc(C(=O)N(C)c4ccc(C#N)cc4)cn23)cc1 | 0.131 µM | 0.29 µM | 0.094 µM | 0.081 µM | 430 µM (≈ 176 µg/mL) | 0.33 | 2.08 h | 51.9% | 34 mL/min/kg | 5.2 µM | 0.42 h | 0.5 h | 12.4 µM·h | 1.63 h | 1.02 L/kg | 80% |
| CNC(=O)c1ccc(-c2cnc3cnc(C(=O)N(C)c4ccc(Cl)cc4)cn23)cc1 | 0.058 µM | 0.036 µM | 0.196 µM | 0.105 µM | 820 µM (≈ 344 µg/mL) | 0.49 | 1.05 h | 60% | 19.3 mL/min/kg | 20.5 µM | 0.83 h | 0.5 h | 31.2 µM·h | 3.63 h | 0.96 L/kg | – |
